{"source": "patent US20020123037A1", "about": "“Selection Procedure Using Prodrug/Enzyme System” (Cobra Therapeutics Limited, priority 1999, published 2002)", "key": {"[1]": {"system": "E.coli C600Hfl lysogens of λJG3J1 and λJG16C1", "assay": "Induction of phage release from 5:1 mixture of lysogens JG3J1 (control) and JG16C1 (ntr) by CB1954", "type": "cell-based", "settings": "for #### (Control phage in the section above) / No. cols / Phage particles / No. ntr phage (colonies containing λJG16C1 of colonies screened by PCR): 500 μM CB1954", "experimental": "E.coli C600Hfl (obtained from Promega Cat No. D3131) were infected with λJG3J1 or λJG16C1 for 15min at 37 °C and spread onto kanamycin (30µg/ml) selective Lennox agar (LA) plates to select for lysogens. A single colony of each was picked, and the lysogenic bacteria were then grown aerobically at 37 °C to mid log phase in LB containing 0.1mM IPTG. Approximately 4.8 x 10^8 λJG3J1 lysogens and 9 x 10^7 λ JG16C1 lysogens (as estimated from the optical density; approximate 5:1 ratio without:with nitroreductase) were mixed in 5ml LB containing 0.1mM IPTG in the presence or absence of 500 µM CB1954 (provided by Cobra Therapeutics and diluted from a 50mM stock solution in 2:7 N-methyl pyrrolidinone:PEG300). The mixtures of bacterial lysogens were incubated at 37 °C with shaking and 50µl samples removed at intervals between 15 and 185 minutes after mixing.\nEach sample was immediately mixed with 1ml LB and 100µl chloroform to kill any bacteria, briefly centrifuged to pellet debris, and the supernatant diluted 1 in 10 before using 10 µl to infect E. coli C600Hfl and plating onto LA containing kanamycin, to select for bacteria lysogenised by bacteriophage in the sample.\nThe number of colonies growing from the samples was counted the following day, and indicates the total number of bacteriophage present in the sample.\nThe polymerase chain reaction (PCR) was used to determine whether the bacteria in each colony contained λJG3J1 or λJG16C1. A number of individual colonies were picked at random from the most relevant plates and transferred to a 200µl PCR tube, lysed in a microwave for 2min and 35µl of PCR reaction mix [16mM (NH4)2SO4, 67mM Tris-Cl (pH 8.8 at 25 °C), 0.01% Tween-20 (Bioline), 0.2mM each dNTP, 1.5mM MgCl2, 1 U Biotaq (Bioline)] plus 0.25 µM primersJ\nA tube containing reaction mix but no bacteria was used as a control to check for contamination of PCR reaction components. After 30 cycles (94 °C/5min; then 30x 94 °C/45s, 55 °C/45s, 72 °C/160s; then 72 °C/10min) the PCR products were analysed by gel electrophoresis to determine the product size. Lysogens containing λJG16C1 expressing ntr gave a 1.1kb product whereas λJG3J1 lysogens gave a 0.4kb product. All the colonies gave one or the other of these two bands but not both, and the negative control confirmed the absence of contamination in the PCR."}, "wild type nitroreductase": {"biological_target": "wild type nitroreductase (Escherichia coli, UniProt P38489)", "sequence (P38489 whole entry)": "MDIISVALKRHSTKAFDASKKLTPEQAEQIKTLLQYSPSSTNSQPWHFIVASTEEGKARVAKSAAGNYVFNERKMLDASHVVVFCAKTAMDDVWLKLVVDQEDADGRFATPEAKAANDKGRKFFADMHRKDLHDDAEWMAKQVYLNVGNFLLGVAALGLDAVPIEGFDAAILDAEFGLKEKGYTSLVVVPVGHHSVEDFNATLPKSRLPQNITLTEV", "settings": "CB1954 as substrate, reference 9, cited from earlier work"}, "[2]": {"system": "colorectal, pancreatic and ovarian tumour cell lines", "settings": "retroviral transfer of nitroreductase expression cassette; McNeish et al., 1998; Green et al., 1996; cited from earlier work"}, "[3]": {"system": "nitroreductase-expressing tumours", "settings": "mice harbouring nitroreductase-expressing tumours; McNeish et al., 1998; cited from earlier work"}, "mammalian DT diaphorases": {"system": "mammalian DT diaphorases", "settings": "cited from earlier work"}, "[4]": {"settings": "15 min after mixing & induction"}, "[5]": {"settings": "30 min after mixing & induction"}, "[6]": {"settings": "45 min after mixing & induction"}, "[7]": {"settings": "60 min after mixing & induction"}, "[8]": {"settings": "75 min after mixing & induction"}, "[9]": {"settings": "90 min after mixing & induction"}, "[10]": {"settings": "125 min after mixing & induction"}, "[11]": {"settings": "155 min after mixing & induction"}, "[12]": {"settings": "185 min after mixing & induction"}}, "note": "Values joined by “and” are separate entries in the source; they are usually repeats but may differ in a detail not shown here. Equal values may be shown once.", "data": [{"molecule": "NC(=O)c1cc(N2CC2)c([N+](=O)[O-])cc1[N+](=O)[O-]", "note": "[CB1954, 5-[aziridin-1-yl]-2,4-dinitrobenzamide]", "values": [{"measurement": "#### (Control phage in the section above)", "setting": "[1]; 15 min, no PCR typing", "value": 0.6}, {"measurement": "No. cols", "setting": "[1]; [4]", "value": 3}, {"measurement": "Phage particles", "setting": "[1]; [4]", "value": "0.6 10^−6 per ml"}, {"measurement": "#### (Control phage in the section above)", "setting": "[1]; 30 min, no PCR typing", "value": 1}, {"measurement": "No. cols", "setting": "[1]; [5]", "value": 5}, {"measurement": "Phage particles", "setting": "[1]; [5]", "value": "1 10^−6 per ml"}, {"measurement": "#### (Control phage in the section above)", "setting": "[1]; 45 min, no PCR typing", "value": 2.2}, {"measurement": "No. cols", "setting": "[1]; [6]", "value": 11}, {"measurement": "Phage particles", "setting": "[1]; [6]", "value": "2.2 10^−6 per ml"}, {"measurement": "#### (Control phage in the section above)", "setting": "[1]; 60 min", "value": 3.82}, {"measurement": "No. ntr phage (colonies containing λJG16C1 of colonies screened by PCR)", "setting": "[1]; 60 min", "value": "1 of 11"}, {"measurement": "No. cols", "setting": "[1]; [7]", "value": 21}, {"measurement": "Phage particles", "setting": "[1]; [7]", "value": "4.2 10^−6 per ml"}, {"measurement": "#### (Control phage in the section above)", "setting": "[1]; 75 min", "value": 4.79}, {"measurement": "No. ntr phage (colonies containing λJG16C1 of colonies screened by PCR)", "setting": "[1]; 75 min", "value": "6 of 19"}, {"measurement": "No. cols", "setting": "[1]; [8]", "value": 35}, {"measurement": "Phage particles", "setting": "[1]; [8]", "value": "7 10^−6 per ml"}, {"measurement": "#### (Control phage in the section above)", "setting": "[1]; 90 min", "value": 9.6}, {"measurement": "No. ntr phage (colonies containing λJG16C1 of colonies screened by PCR)", "setting": "[1]; 90 min", "value": "18/30 and 18 of 30"}, {"measurement": "No. cols", "setting": "[1]; [9]", "value": 120}, {"measurement": "Phage particles", "setting": "[1]; [9]", "value": "24 10^−6 per ml"}, {"measurement": "#### (Control phage in the section above)", "setting": "[1]; 125 min", "value": 33.4}, {"measurement": "No. ntr phage (colonies containing λJG16C1 of colonies screened by PCR)", "setting": "[1]; 125 min", "value": "11 of 23"}, {"measurement": "No. cols", "setting": "[1]; [10]", "value": 320}, {"measurement": "Phage particles", "setting": "[1]; [10]", "value": "64 10^−6 per ml"}, {"measurement": "#### (Control phage in the section above)", "setting": "[1]; 155 min", "value": 54.7}, {"measurement": "No. ntr phage (colonies containing λJG16C1 of colonies screened by PCR)", "setting": "[1]; 155 min", "value": "6 of 25"}, {"measurement": "No. cols", "setting": "[1]; [11]", "value": 360}, {"measurement": "Phage particles", "setting": "[1]; [11]", "value": "72 10^−6 per ml"}, {"measurement": "#### (Control phage in the section above)", "setting": "[1]; 185 min", "value": 72}, {"measurement": "No. ntr phage (colonies containing λJG16C1 of colonies screened by PCR)", "setting": "[1]; 185 min", "value": "0 of 10"}, {"measurement": "No. cols", "setting": "[1]; [12]", "value": 360}, {"measurement": "Phage particles", "setting": "[1]; [12]", "value": "72 10^−6 per ml"}, {"measurement": "enrichment of λJG16C1", "setting": "[1]; 90 minute time point, 60% versus 16% at mixing", "value": "~ 4 fold"}, {"measurement": "proportion of λJG16C1 among recovered bacteriophage (peak)", "setting": "[1]; culture exposed to CB1954, at 90 minutes, λJG16C1 16% of the mixture at mixing", "value": 60, "unit": "%"}, {"measurement": "peak concentration of the λJG16C1", "setting": "[1]; culture exposed to CB1954, at 125 minutes", "value": "3 x 10^7 per ml"}, {"measurement": "concentration of total bacteriophages released into the medium", "setting": "[1]; culture exposed to CB1954, at 155 minutes", "value": "7.2 x 10^7 per ml"}, {"measurement": "concentration of total bacteriophages released into the medium", "setting": "[1]; culture exposed to CB1954, at early times", "value": "6 x 10^5 per ml"}, {"measurement": "colony number", "setting": "[1]; culture exposed to CB1954, end of the timecourse", "value": "~ 360"}, {"measurement": "colony number", "setting": "[1]; culture exposed to CB1954, start of the timecourse", "value": 3}, {"measurement": "level of bacteriophage above background", "setting": "[1]; first ~60 minutes of exposure to CB1954", "value": "no increase"}, {"measurement": "turnover rate kcat", "setting": "wild type nitroreductase", "value": 6, "unit": "s⁻¹"}, {"measurement": "Km", "setting": "wild type nitroreductase; read-out: Michaelis constant KM", "value": 860, "unit": "µM"}, {"measurement": "sensitisation of tumour cell lines to the prodrug", "setting": "[2]", "value": "can sensitise"}, {"measurement": "survival of mice", "setting": "[3]", "value": "Significantly increased survival and apparent cures"}]}, {"molecule": "NC(=O)c1cc(N(CCCl)CCCl)c([N+](=O)[O-])cc1[N+](=O)[O-]", "note": "[SN 23862]", "values": [{"measurement": "activation by mammalian DT diaphorases", "setting": "mammalian DT diaphorases", "value": "not activated"}]}]}
